Test results reported in the OligoGym collection.
HELM strings list units from the 5' end as sugar, base in round brackets, then linkage (d deoxyribose, r ribose, m 2'-O-methyl, p phosphodiester). Strings are as the collection lists them, not checked against the first reports. ss, as = sense and antisense strand; [lna] = locked nucleic acid (LNA); [hna] = hexitol nucleic acid; [fl2r] = 2'-fluoro

Conditions: siRNA
Note: test system not given here.

Substance	target mRNA knockdown
RNA1{r(G)p.r(A)p.r(G)p.r(A)p.r(G)p.r(A)p.r(G)p.r(A)p.r(C)p.r(G)p.r(G)p.r(U)p.r(G)p.r(G)p.r(A)p.r(A)p.r(G)p.r(A)p.r(A)p.r(T)p.r(T)}|RNA2{r(U)p.r(U)p.r(C)p.r(U)p.r(U)p.r(C)p.r(C)p.m(A)p.r(C)p.r(C)p.r(G)p.r(U)p.r(C)p.r(U)p.r(C)p.r(U)p.r(C)p.r(U)p.r(C)p.r(T)p.r(T)}$$$RNA1{StrandType:ss}|RNA2{StrandType:as}$	74%
RNA1{r(G)p.r(G)p.r(C)p.r(C)p.r(A)p.r(A)p.r(A)p.r(G)p.m(U)p.r(A)p.r(A)p.r(U)p.r(C)p.r(G)p.r(U)p.r(G)p.r(G)p.r(U)p.r(U)p.r(T)p.r(T)}|RNA2{r(A)p.r(A)p.r(C)p.r(C)p.r(A)p.r(C)p.r(G)p.r(A)p.r(U)p.m(U)p.r(A)p.r(C)p.r(U)p.r(U)p.r(U)p.r(G)p.r(G)p.r(C)p.r(C)p.r(T)p.r(T)}$$$RNA1{StrandType:ss}|RNA2{StrandType:as}$	85%
RNA1{[fl2r](C)p.[fl2r](U)p.r(A)p.[fl2r](G)p.r(A)p.r(G)p.[fl2r](G)p.r(A)p.[fl2r](U)p.[fl2r](C)p.[fl2r](U)p.[fl2r](U)p.r(G)p.r(A)p.[fl2r](A)p.r(G)p.r(A)p.[fl2r](C)p.[fl2r](C)p.r(T)p.r(T)}|RNA2{r(G)p.r(G)p.[fl2r](U)p.[fl2r](C)p.[fl2r](U)p.[fl2r](U)p.[fl2r](C)p.r(A)p.r(A)p.r(G)p.r(A)p.[fl2r](U)p.[fl2r](C)p.[fl2r](C)p.[fl2r](U)p.[fl2r](C)p.[fl2r](U)p.r(A)p.r(G)p.r(T)p.r(T)}$$$RNA1{StrandType:ss}|RNA2{StrandType:as}$	12%
RNA1{r(G)p.r(A)p.r(C)p.r(G)p.r(U)p.r(A)p.r(A)p.r(A)p.r(C)p.r(G)p.r(G)p.r(C)p.r(C)p.r(A)p.r(C)p.r(A)p.r(A)p.r(G)p.[hna](U)p.[hna](U)p.r(C)}|RNA2{r(A)p.r(C)p.[lna](T)p.r(U)p.r(G)p.[lna](T)p.r(G)p.r(G)p.r(C)p.r(C)p.r(G)p.r(U)p.r(U)p.[lna](T)p.r(A)p.r(C)p.r(G)p.[lna](T)p.r(C)p.[lna](G)p.[lna](C)}$$$RNA1{StrandType:ss}|RNA2{StrandType:as}$	13.3%
RNA1{r(G)p.r(C)p.r(A)p.r(G)p.r(C)p.r(A)p.r(C)p.r(G)p.r(A)p.r(C)p.r(U)p.r(U)p.r(C)p.r(U)p.r(U)p.r(C)p.r(A)p.r(A)p.r(G)p.r(U)p.r(U)}|RNA2{r(C)p.[fl2r](U)p.r(U)p.r(G)p.r(A)p.r(A)p.r(G)p.r(A)p.r(A)p.r(G)p.r(U)p.r(C)p.r(G)p.r(U)p.r(G)p.r(C)p.r(U)p.r(G)p.r(C)p.r(U)p.r(U)}$$$RNA1{StrandType:ss}|RNA2{StrandType:as}$	73.8%
RNA1{r(A)p.r(G)p.r(G)p.r(A)p.r(G)p.r(A)p.r(C)p.r(C)p.r(G)p.[fl2r](U)p.r(G)p.r(A)p.[fl2r](C)p.r(A)p.r(U)p.r(U)p.r(U)p.r(C)p.r(G)p.r(T)p.r(T)}|RNA2{r(C)p.r(G)p.r(A)p.r(A)p.r(A)p.[fl2r](U)p.r(G)p.r(U)p.r(C)p.[fl2r](A)p.r(C)p.r(G)p.r(G)p.r(U)p.r(C)p.r(U)p.r(C)p.r(C)p.r(U)p.r(T)p.r(T)}$$$RNA1{StrandType:ss}|RNA2{StrandType:as}$	69%
RNA1{m(G)p.r(G)p.m(U)p.r(A)p.m(G)p.r(G)p.m(G)p.r(U)p.m(U)p.r(G)p.m(A)p.r(A)p.m(G)p.r(A)p.m(G)p.r(A)p.m(C)p.r(U)p.r(U)p.r(T)p.r(T)}|RNA2{r(A)p.r(A)p.r(G)p.r(U)p.r(C)p.r(U)p.r(C)p.r(U)p.r(U)p.r(C)p.r(A)p.r(A)p.m(C)p.r(C)p.r(C)p.r(U)p.m(A)p.r(C)p.r(C)p.r(T)p.r(T)}$$$RNA1{StrandType:ss}|RNA2{StrandType:as}$	58%
RNA1{[fl2r](U)p.r(A)p.[fl2r](A)p.r(C)p.[fl2r](C)p.r(C)p.[fl2r](C)p.r(A)p.[fl2r](A)p.r(G)p.[fl2r](A)p.r(A)p.[fl2r](C)p.r(G)p.[fl2r](G)p.r(G)p.[fl2r](C)p.r(U)p.[fl2r](U)p.r(T)p.r(T)}|RNA2{[fl2r](A)p.[fl2r](A)p.r(G)p.r(C)p.r(C)p.r(C)p.r(G)p.r(U)p.r(U)p.r(C)p.r(U)p.r(U)p.r(G)p.r(G)p.r(G)p.r(G)p.r(U)p.r(U)p.[fl2r](A)p.r(T)p.r(T)}$$$RNA1{StrandType:ss}|RNA2{StrandType:as}$	47%
RNA1{r(A)p.m(U)p.r(A)p.r(C)p.r(U)p.r(U)p.r(G)p.r(G)p.r(C)p.r(G)p.r(G)p.r(G)p.r(C)p.r(U)p.r(C)p.r(U)p.r(U)p.r(U)p.r(C)p.r(T)p.r(T)}|RNA2{r(G)p.r(A)p.r(A)p.r(A)p.r(G)p.r(A)p.r(G)p.r(C)p.r(C)p.r(C)p.r(G)p.r(C)p.r(C)p.r(A)p.r(A)p.r(G)p.r(U)p.r(A)p.r(U)p.r(T)p.r(T)}$$$RNA1{StrandType:ss}|RNA2{StrandType:as}$	48%
RNA1{r(A)p.r(A)p.r(C)p.r(C)p.[fl2r](C)p.r(A)p.r(C)p.r(C)p.r(A)p.[fl2r](C)p.r(A)p.r(G)p.r(C)p.[fl2r](U)p.r(A)p.r(G)p.r(A)p.r(A)p.r(C)p.r(U)p.r(U)}|RNA2{r(G)p.r(U)p.r(U)p.r(C)p.[fl2r](U)p.r(A)p.r(G)p.r(C)p.[fl2r](U)p.r(G)p.[fl2r](U)p.r(G)p.r(G)p.[fl2r](U)p.r(G)p.r(G)p.r(G)p.r(U)p.r(U)p.r(U)p.r(U)}$$$RNA1{StrandType:ss}|RNA2{StrandType:as}$	79%
RNA1{r(C)p.m(U)p.r(A)p.r(G)p.r(U)p.r(C)p.r(G)p.r(A)p.m(A)p.r(A)p.r(G)p.r(A)p.m(A)p.m(A)p.r(A)p.r(C)p.r(G)p.r(G)p.r(G)p.r(T)p.r(T)}|RNA2{r(C)p.r(C)p.r(C)p.r(G)p.r(U)p.r(U)p.r(U)p.r(U)p.r(C)p.r(U)p.r(U)p.r(U)p.r(C)p.r(G)p.r(A)p.r(C)p.m(U)p.r(A)p.r(G)p.r(T)p.r(T)}$$$RNA1{StrandType:ss}|RNA2{StrandType:as}$	55%
RNA1{r(C)p.r(U)p.m(C)p.r(A)p.r(A)p.r(A)p.r(U)p.m(C)p.r(A)p.r(A)p.r(G)p.r(G)p.r(C)p.r(C)p.r(G)p.r(G)p.r(A)p.r(G)p.r(U)p.r(T)p.r(T)}|RNA2{r(A)p.r(C)p.r(U)p.r(C)p.r(C)p.r(G)p.r(G)p.r(C)p.r(C)p.r(U)p.m(U)p.r(G)p.r(A)p.r(U)p.r(U)p.m(U)p.r(G)p.r(A)p.r(G)p.r(T)p.r(T)}$$$RNA1{StrandType:ss}|RNA2{StrandType:as}$	82%
RNA1{r(A)p.r(A)p.r(A)p.r(C)p.[fl2r](C)p.[fl2r](A)p.r(G)p.r(G)p.r(A)p.r(A)p.r(G)p.r(G)p.r(G)p.r(G)p.r(A)p.r(A)p.r(A)p.r(U)p.r(C)p.r(T)p.r(T)}|RNA2{r(G)p.r(A)p.r(U)p.r(U)p.r(U)p.r(C)p.r(C)p.r(C)p.r(C)p.r(U)p.r(U)p.r(C)p.r(C)p.r(U)p.r(G)p.r(G)p.r(U)p.r(U)p.r(U)p.r(T)p.r(T)}$$$RNA1{StrandType:ss}|RNA2{StrandType:as}$	64%
RNA1{r(A)p.r(G)p.r(A)p.r(A)p.r(A)p.r(C)p.r(G)p.r(C)p.r(A)p.r(G)p.m(U)p.m(A)p.r(A)p.r(U)p.r(C)p.r(C)p.r(G)p.r(G)p.r(A)p.r(T)p.r(T)}|RNA2{r(U)p.r(C)p.r(C)p.r(G)p.r(G)p.r(A)p.r(U)p.m(U)p.r(A)p.r(C)p.r(U)p.r(G)p.r(C)p.r(G)p.r(U)p.r(U)p.r(U)p.r(C)p.r(U)p.r(T)p.r(T)}$$$RNA1{StrandType:ss}|RNA2{StrandType:as}$	85%
RNA1{r(C)p.r(U)p.r(U)p.r(A)p.r(C)p.r(G)p.r(C)p.r(U)p.r(G)p.r(A)p.r(G)p.r(U)p.r(A)p.r(C)p.r(U)p.r(U)p.r(C)p.r(G)p.r(A)p.r(T)p.r(T)}|RNA2{r(U)p.r(C)p.r(G)p.r(A)p.r(A)p.[lna](G)p.r(U)p.r(A)p.r(C)p.r(U)p.r(C)p.r(A)p.r(G)p.r(C)p.r(G)p.r(U)p.r(A)p.r(A)p.r(G)p.r(T)p.r(T)}$$$RNA1{StrandType:ss}|RNA2{StrandType:as}$	82%
RNA1{r(G)p.r(G)p.r(C)p.m(C)p.r(A)p.r(A)p.r(A)p.r(G)p.m(U)p.r(A)p.r(A)p.r(U)p.r(C)p.r(G)p.m(U)p.r(G)p.r(G)p.r(U)p.r(U)p.r(T)p.r(T)}|RNA2{r(A)p.r(A)p.r(C)p.m(C)p.r(A)p.r(C)p.r(G)p.r(A)p.r(U)p.m(U)p.r(A)p.r(C)p.r(U)p.r(U)p.m(U)p.r(G)p.r(G)p.r(C)p.r(C)p.r(T)p.r(T)}$$$RNA1{StrandType:ss}|RNA2{StrandType:as}$	86%
RNA1{r(G)p.r(C)p.r(U)p.r(U)p.r(U)p.r(A)p.r(A)p.r(G)p.r(G)p.r(A)p.r(A)p.r(C)p.r(U)p.r(G)p.r(G)p.r(A)p.r(A)p.r(G)p.r(G)p.r(T)p.r(T)}|RNA2{r(C)p.r(C)p.r(U)p.r(U)p.r(C)p.r(C)p.r(A)p.r(G)p.r(U)p.r(U)p.r(C)p.r(C)p.r(U)p.m(U)p.r(A)p.r(A)p.r(A)p.r(G)p.r(C)p.r(T)p.r(T)}$$$RNA1{StrandType:ss}|RNA2{StrandType:as}$	37%
RNA1{r(G)p.r(A)p.r(A)p.m(U)p.r(A)p.r(A)p.r(C)p.r(C)p.r(U)p.r(G)p.r(A)p.r(A)p.r(C)p.r(G)p.r(U)p.r(C)p.r(A)p.r(C)p.r(C)p.r(T)p.r(T)}|RNA2{r(G)p.r(G)p.r(U)p.r(G)p.r(A)p.r(C)p.r(G)p.r(U)p.r(U)p.r(C)p.r(A)p.r(G)p.r(G)p.r(U)p.m(U)p.r(A)p.r(U)p.r(U)p.r(C)p.r(T)p.r(T)}$$$RNA1{StrandType:ss}|RNA2{StrandType:as}$	55%
RNA1{m(A)p.r(A)p.m(A)p.r(C)p.m(C)p.r(U)p.m(C)p.r(A)p.m(G)p.r(C)p.m(C)p.r(C)p.m(U)p.r(A)p.m(A)p.r(C)p.m(G)p.r(G)p.m(U)p.r(T)p.r(T)}|RNA2{r(A)p.r(C)p.r(C)p.r(G)p.r(U)p.r(U)p.r(A)p.r(G)p.r(G)p.r(G)p.r(C)p.r(U)p.r(G)p.r(A)p.r(G)p.r(G)p.r(U)p.r(U)p.r(U)p.r(T)p.r(T)}$$$RNA1{StrandType:ss}|RNA2{StrandType:as}$	51%
RNA1{r(A)p.r(G)p.r(C)p.r(C)p.[fl2r](C)p.r(A)p.r(G)p.r(A)p.[fl2r](U)p.r(A)p.r(G)p.r(C)p.r(U)p.r(C)p.r(U)p.r(U)p.[fl2r](C)p.r(A)p.r(G)p.r(T)p.r(T)}|RNA2{r(C)p.[fl2r](U)p.r(G)p.r(A)p.r(A)p.r(G)p.r(A)p.r(G)p.r(C)p.[fl2r](U)p.r(A)p.r(U)p.r(C)p.[fl2r](U)p.r(G)p.r(G)p.r(G)p.r(C)p.r(U)p.r(T)p.r(T)}$$$RNA1{StrandType:ss}|RNA2{StrandType:as}$	61%
